Reference: patent US20090068290A1, “BIFEPRUNOX DOSES FOR TREATING SCHIZOPHRENIA” (priority 2006, published 2009)

Key:
[1] = system: adult subjects with schizophrenia; test: PANSS positive subscale score, Clinical Study One; assay type: in vivo, human; details: ITT; for PANSS Positive Subscale Score, Trt Effect (bifeprunox—placebo): ANCOVA
Protocol: There were five treatment groups in this study. […] Study medication was administered once daily. After Baseline measurements were performed, the titration phase was begun. Bifeprunox treated subjects were titrated up to 5 mg, 10 mg or 20 mg according to a standardized titration schedule (Day 1: 0.125 mg, Day 2: 0.25 mg, Day 3: 0.5 mg, Day 4: 1.0 mg, Day 5: 2.0 mg, Day 6: 5.0 mg, Day 7: 10.0 mg, Day 8: 20 mg). When the assigned dose was reached, subjects were maintained at that dose for the remainder of the six-week treatment period.
The change in the Positive and Negative Symptom Scale (PANSS) total score, from baseline to endpoint, was the primary outcome measure. Secondary efficacy measures included: PANSS positive, PANSS negative, PANSS general psychopathology (GPP) score, PANSS-derived Brief Psychiatric Rating Scale (BPRS) score, Clinical Global Impressions-Severity of Illness (CGI-S), CGI-Improvement (CGI-I) scores, and responder rates. Safety and tolerability evaluations included extrapyramidal symptoms (EPS), weight gain, lipid profile, and serum prolactin.

[2] = system: adult subjects with schizophrenia; test: BPRS total score, Clinical Study Three; assay type: in vivo, human; details: for mean change (SD) from Baseline to Endpoint in BPRS total score / Change from Baseline in BPRS Total Score, Mean (SD) / Change from Baseline in BPRS Total Score, Median / Change from Baseline in BPRS Total Score, Trt Effect (bifeprunox—placebo): LOCF; for mean change (SD) from Baseline to Endpoint in BPRS total score: ITT; for Change from Baseline in BPRS Total Score, Mean (SD) / Change from Baseline in BPRS Total Score, Median / Change from Baseline in BPRS Total Score, Trt Effect (bifeprunox—placebo): ITT population
From the text: SECONDARY OBJECTIVES To assess the efficacy of bifeprunox in treating schizophrenia using the Positive Symptom sub-scale score of the PANSS, the Negative Symptom sub-scale score of the PANSS, the General Psychopathology sub-scale of the PANSS, Brief Psychiatric Rating Scale (BPRS) total score derived from the PANSS, BPRS psychosis score derived from the PANSS, the Clinical Global Impression Severity of Illness score (CGI-S), the Clinical Global Impression Improvement score (CGI-I), CGI-I responder rate, PANSS responder rate based on the PANSS total score, Calgary Depression Scale for Schizophrenia (CDSS), and Subject Satisfaction rating.
There were four treatment arms in this study, approximately 144 subjects per arm. […] After completing the Single-Blind Placebo Lead-in Period of at least three days, bifeprunox-treated subjects were titrated from 0.25 mg up to 20 mg/day or 30 mg/day according to a standardized titration scheme over a seven- or eight-day period, respectively. When the assigned dose was reached, subjects were maintained at that dose for the remainder of the six week treatment period. […] Subjects were hospitalized (if not already inpatients) after eligibility for study entry was verified, starting from the Screening Visit until at least 10 days after Baseline. Subjects could be hospitalized longer than 10 days if considered medically necessary by the Investigator. Rating scale assessments for efficacy and abnormal movement disorders were done weekly except for Week 5. […] Subject satisfaction with study medication was assessed at Week 6.

[3] = Bifeprunox 10 mg, Endpoint LOCF
[4] = Bifeprunox 20 mg, Endpoint LOCF
[5] = Bifeprunox 20 mg, Week 6/Endpoint
[6] = Bifeprunox 30 mg, Week 6/Endpoint

In the case of O=c1[nH]c2cccc(N3CCN(Cc4cccc(-c5ccccc5)c4)CC3)c2o1 [Bifeprunox, 7-[4-([1,1′-biphenyl]-3-ylmethyl)-1-piperazinyl]-2(3H)-benzoxazolone], the “Change from Baseline in PANSS Positive Subscale Score, Mean (S.D.)” value (“Change from Baseline … (S.D.)” below) ([1]; Bifeprunox 5 mg, Endpoint LOCF) is reported as −3.2 (5.2), the “Change from Baseline in PANSS Positive Subscale Score, Median” value ([1]; Bifeprunox 5 mg, Endpoint LOCF) is reported as −3 and the “PANSS Positive Subscale Score, Trt Effect (bifeprunox—placebo)” value ([1]; Bifeprunox 5 mg, Endpoint LOCF) is reported as −1.1. The “Change from Baseline … (S.D.)” value ([1]; Bifeprunox 5 mg, Week 1, LOCF) was −1.1 (3.4), the “Change from Baseline in PANSS Positive Subscale Score, Median” value ([1]; Bifeprunox 5 mg, Week 1, LOCF) was −1 and the “Change from Baseline … (S.D.)” value ([1]; Bifeprunox 5 mg, Week 2, LOCF) was −2.1 (4.0). The “Change from Baseline in PANSS Positive Subscale Score, Median” value ([1]; Bifeprunox 5 mg, Week 2, LOCF) was −2, the “Change from Baseline … (S.D.)” value ([1]; Bifeprunox 5 mg, Week 3, LOCF) was −2.6 (4.7) and the “Change from Baseline in PANSS Positive Subscale Score, Median” value ([1]; Bifeprunox 5 mg, Week 3, LOCF) was −3. For the same molecule, the “Change from Baseline … (S.D.)” value ([1]; Bifeprunox 5 mg, Week 4, LOCF) was −3.0 (5.0), the “Change from Baseline in PANSS Positive Subscale Score, Median” value ([1]; Bifeprunox 5 mg, Week 4, LOCF) was −4 and the “Change from Baseline … (S.D.)” value [1, 3] was −1.4 (6.1). For the same molecule, the “Change from Baseline in PANSS Positive Subscale Score, Median” value [1, 3] was −1, the “PANSS Positive Subscale Score, Trt Effect (bifeprunox—placebo)” value [1, 3] was 0.7 and the “Change from Baseline … (S.D.)” value ([1]; Bifeprunox 10 mg, Week 1, LOCF) was −0.6 (3.9). For the same molecule, the “Change from Baseline in PANSS Positive Subscale Score, Median” value ([1]; Bifeprunox 10 mg, Week 1, LOCF) was −1, the “Change from Baseline … (S.D.)” value ([1]; Bifeprunox 10 mg, Week 2, LOCF) was −1.2 (4.7) and the “Change from Baseline in PANSS Positive Subscale Score, Median” value ([1]; Bifeprunox 10 mg, Week 2, LOCF) was −1. The “Change from Baseline … (S.D.)” value ([1]; Bifeprunox 10 mg, Week 3, LOCF) was −1.1 (5.5), the “Change from Baseline in PANSS Positive Subscale Score, Median” value ([1]; Bifeprunox 10 mg, Week 3, LOCF) was −1 and the “Change from Baseline … (S.D.)” value ([1]; Bifeprunox 10 mg, Week 4, LOCF) was −1.1 (5.6). For the same molecule, the “Change from Baseline in PANSS Positive Subscale Score, Median” value ([1]; Bifeprunox 10 mg, Week 4, LOCF) was −1, the “Change from Baseline … (S.D.)” value [1, 4] was −3.5 (5.1) and the “Change from Baseline in PANSS Positive Subscale Score, Median” value [1, 4] was −3. For the same molecule, the “PANSS Positive Subscale Score, Trt Effect (bifeprunox—placebo)” value [1, 4] was −1.5, the “Change from Baseline … (S.D.)” value ([1]; Bifeprunox 20 mg, Week 1, LOCF) was −1.7 (3.5) and the “Change from Baseline in PANSS Positive Subscale Score, Median” value ([1]; Bifeprunox 20 mg, Week 1, LOCF) was −1. The “Change from Baseline … (S.D.)” value ([1]; Bifeprunox 20 mg, Week 2, LOCF) was −2.7 (4.3), the “Change from Baseline in PANSS Positive Subscale Score, Median” value ([1]; Bifeprunox 20 mg, Week 2, LOCF) was −3 and the “Change from Baseline … (S.D.)” value ([1]; Bifeprunox 20 mg, Week 3, LOCF) was −3.3 (4.4). For the same molecule, the “Change from Baseline in PANSS Positive Subscale Score, Median” value ([1]; Bifeprunox 20 mg, Week 3, LOCF) was −3, the “Change from Baseline … (S.D.)” value ([1]; Bifeprunox 20 mg, Week 4, LOCF) was −3.5 (4.8) and the “Change from Baseline in PANSS Positive Subscale Score, Median” value ([1]; Bifeprunox 20 mg, Week 4, LOCF) was −3. For the same molecule, the “BPRS total score, treatment effect (bifeprunox—placebo)” value ([2]; 'the mg bifeprunox group' (dose not given), Endpoint LOCF) was −2.1, the “mean change (SD) from Baseline to Endpoint in BPRS total score” value ([2]; 'the mg bifeprunox group' (dose not given)) was −7.9 (12.0) and the “Change from Baseline in BPRS Total Score, Mean (SD)” value (shortened to “Change from Baseline … (SD)”) ([2]; Bifeprunox 20 mg, Week 1) was −3.2 (7.3). The “Change from Baseline in BPRS Total Score, Median” value ([2]; Bifeprunox 20 mg, Week 1) was −3, the “Change from Baseline … (SD)” value ([2]; Bifeprunox 20 mg, Week 2) was −6.0 (9.1) and the “Change from Baseline in BPRS Total Score, Median” value ([2]; Bifeprunox 20 mg, Week 2) was −7. For the same molecule, the “Change from Baseline … (SD)” value ([2]; Bifeprunox 20 mg, Week 3) was −7.5 (10.3), the “Change from Baseline in BPRS Total Score, Median” value ([2]; Bifeprunox 20 mg, Week 3) was −8 and the “Change from Baseline … (SD)” value ([2]; Bifeprunox 20 mg, Week 4) was −8.1 (11.3). The “Change from Baseline in BPRS Total Score, Median” value ([2]; Bifeprunox 20 mg, Week 4) was −9, the “Change from Baseline … (SD)” value [2, 5] was −8.5 (11.9) and the “Change from Baseline in BPRS Total Score, Median” value [2, 5] was −8. The “Change from Baseline in BPRS Total Score, Trt Effect (bifeprunox—placebo)” value [2, 5] was −2.1, the “Change from Baseline … (SD)” value ([2]; Bifeprunox 30 mg, Week 1) was −3.6 (7.3) and the “Change from Baseline in BPRS Total Score, Median” value ([2]; Bifeprunox 30 mg, Week 1) was −4. For the same molecule, the “Change from Baseline … (SD)” value ([2]; Bifeprunox 30 mg, Week 2) was −5.2 (9.3), the “Change from Baseline in BPRS Total Score, Median” value ([2]; Bifeprunox 30 mg, Week 2) was −6 and the “Change from Baseline … (SD)” value ([2]; Bifeprunox 30 mg, Week 3) was −6.7 (10.7). For the same molecule, the “Change from Baseline in BPRS Total Score, Median” value ([2]; Bifeprunox 30 mg, Week 3) was −7, the “Change from Baseline … (SD)” value ([2]; Bifeprunox 30 mg, Week 4) was −7.3 (10.9) and the “Change from Baseline in BPRS Total Score, Median” value ([2]; Bifeprunox 30 mg, Week 4) was −8. The “Change from Baseline … (SD)” value [2, 6] was −7.9 (12.0), the “Change from Baseline in BPRS Total Score, Median” value [2, 6] was −9 and the “Change from Baseline in BPRS Total Score, Trt Effect (bifeprunox—placebo)” value [2, 6] was −1.1. For the same molecule, the “mean change (SD) from Baseline to Endpoint in BPRS total score” value ([2]; bifeprunox 20 mg) was −8.5 (11.9).
